# Reference: the pKa sets of Baltruschat and Czodrowski (2020)
# Key:
# [1] = not given; remark: listed apart in the source
SMILES,pKa,pKa [1]
CCCC(=O)OC(CC(=O)O)C[N+](C)(C)C (stereo unspecified),3.56,
Cc1ccc(C(=O)c2ccc(CC(=O)O)n2C)cc1,,3.5
CN(C)[C@@H]1C(O)=C(C(N)=O)C(=O)[C@@]2(O)C(O)=C3C(=O)c4c(O)cccc4[C@@](C)(O)C3[C@H](O)C12 (stereo partly specified),7.32,
CCn1nc(C(=O)O)c(=O)c2cc3c(cc21)OCO3,,4.7
Cc1cccc(Nc2ccccc2C(=O)O)c1C,,4.5
CCCCCCCC(=O)OC(CC(=O)O)C[N+](C)(C)C (stereo unspecified),3.6,
CCCCCCCCCC(=O)OC(CC(=O)O)C[N+](C)(C)C (stereo unspecified),3.65,
COc1ccc2c3c1O[C@H]1[C@@H](O)C=CC4[C@@H](C2)NCC[C@@]341 (stereo partly specified),9.23,
Nc1ccc(C(=O)O)cc1,4.87,
O=C(O)c1cccnc1,2.05,
O=C(c1ccccc1)c1ccc2n1CCC2C(=O)O (stereo unspecified),,3.5
